Values joined by “and” are separate entries in the source; they are usually repeats but may differ in a detail not shown here. Equal entries are not always repeated.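 Cultured in 96-well plates, cells were exposed to test compound for 48 hours across five concentrations. GI50 = concentration required for 50% inhibition of growth. TGI: total growth inhibition.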 Some results are limits rather than exact numbers.

Among the test systems are RPMI-8226 leukemia; EKVX NSCLC; SF-295 CNS; SK-OV-3 ovarian; OVCAR-3 ovarian; SR leukemia; HOP-92 NSCLC; CAKI-1 renal; NCI-H522 lung; BT-549 breast.
What all share (assay): growth of human tumour cells (NCI), 48 h

As to `COC(=O)c1ccccc1N1C(=O)Cc2ccccc2C1=O`, the TGI in the assay with RPMI-8226 leukemia, in the assay with EKVX NSCLC, in the assay with SF-295 CNS, in the assay on SK-OV-3 ovarian, in the assay with OVCAR-3 ovarian and in the assay with SR leukemia was above 100 µM each time.
`Nc1nc(N)c(-c2ccccc2)c(C(=O)Nc2ccccc2)n1`: the TGI in the assay with RPMI-8226 leukemia, in the assay on EKVX NSCLC, in the assay on HOP-92 NSCLC, in the assay with CAKI-1 renal, in the assay on NCI-H522 lung and with SK-OV-3 ovarian was above 100 µM in each case. The same compound returned a TGI in the assay with OVCAR-3 ovarian above 100 µM.
Consider `COc1ccc(Cn2cc3c(c2-c2ccccc2)CCc2cnoc2-3)cc1OC`, for which the GI50 was 3.16 µM in the assay with RPMI-8226 leukemia; 1.66 µM in the assay on EKVX NSCLC; 1.98 µM in the assay with HOP-92 NSCLC; 0.537 µM in the assay on CAKI-1 renal; 0.34 µM with SF-295 CNS; 0.229 µM in the assay with NCI-H522 lung. Further, the values for the GI50 in the assay on SK-OV-3 ovarian, in the assay on OVCAR-3 ovarian and in the assay on SR leukemia were 1.48 µM, 0.332 µM and 0.353 µM, respectively. In addition, the TGI is above 100 µM in the assay on RPMI-8226 leukemia; above 100 µM with EKVX NSCLC; above 100 µM in the assay with HOP-92 NSCLC; above 100 µM in the assay with CAKI-1 renal; above 100 µM in the assay with SF-295 CNS; 0.801 µM in the assay with NCI-H522 lung. The results for the TGI in the assay with SK-OV-3 ovarian, with OVCAR-3 ovarian and with SR leukemia were above 100 µM, 0.884 µM and above 100 µM, respectively.
Turning to `COc1ccc(NC(=O)CC/C(CC(=O)c2ccco2)=N/NC(N)=S)cc1`, the TGI in the assay on RPMI-8226 leukemia, with EKVX NSCLC, in the assay on HOP-92 NSCLC, in the assay on CAKI-1 renal, with SF-295 CNS and in the assay with NCI-H522 lung was above 100 µM throughout. Besides, the TGI with SK-OV-3 ovarian and in the assay on OVCAR-3 ovarian was above 100 µM throughout.
Consider `CCCCNC(=O)C1C(=O)N(CCCC)C(=O)/C1=N\N` (stereo not drawn), for which the TGI in the assay with RPMI-8226 leukemia, in the assay with EKVX NSCLC, in the assay with HOP-92 NSCLC, in the assay on CAKI-1 renal, with SF-295 CNS and in the assay with NCI-H522 lung was above 100 µM in each case. Besides, the TGI in the assay on SK-OV-3 ovarian and with OVCAR-3 ovarian was above 100 µM in each case.
With `CCCCCCn1c(-c2ccc(C(=O)O/N=C(\N)c3ccc4ccccc4c3)cc2)nc(-c2ccccc2)c1-c1ccccc1`, the GI50 was 6.73 µM in the assay on EKVX NSCLC; 8 µM in the assay on BT-549 breast; 1.92 µM with HOP-92 NSCLC; 2.65 µM with CAKI-1 renal; 11.8 µM in the assay with SF-295 CNS; 24.5 µM in the assay with NCI-H522 lung. For the same compound, the GI50 in the assay on SK-OV-3 ovarian was 25.9 µM; with OVCAR-3 ovarian it was above 100 µM. Further, the TGI was above 100 µM with EKVX NSCLC; above 100 µM in the assay on BT-549 breast; 7.77 µM with HOP-92 NSCLC; 55.1 µM with CAKI-1 renal; above 83.7 µM with SF-295 CNS; above 100 µM in the assay on NCI-H522 lung. For the same compound, the TGI in the assay with SK-OV-3 ovarian is above 90.9 µM; in the assay on OVCAR-3 ovarian, above 100 µM.
On to `CCCCCCCCCCCCSC1=C(Cl)C(=O)C(OC)=C(OC)C1=O`, for which the GI50 in the assay with RPMI-8226 leukemia is 0.239 µM; in the assay with EKVX NSCLC it was 1.61 µM; in the assay with BT-549 breast it was 1.2 µM; in the assay with HOP-92 NSCLC, 2.67 µM; in the assay with CAKI-1 renal it was 4.79 µM; in the assay on SF-295 CNS it was 2.03 µM. Further, the GI50 is 0.379 µM in the assay on NCI-H522 lung, 9.78 µM in the assay with SK-OV-3 ovarian and 1.39 µM in the assay on OVCAR-3 ovarian. Moreover, the TGI with RPMI-8226 leukemia is 3.7 µM; in the assay with EKVX NSCLC it was above 29.5 µM; with BT-549 breast, 9.35 µM; in the assay with HOP-92 NSCLC, 16.3 µM; with CAKI-1 renal it was 34.2 µM; in the assay with SF-295 CNS, 7 µM. For the same compound, the TGI came out at 3.75 µM in the assay on NCI-H522 lung, 27.3 µM in the assay with SK-OV-3 ovarian and 18.3 µM in the assay with OVCAR-3 ovarian.
On to `CCOC(=O)C(N=C(c1ccccc1)c1ccccc1)N(C(=O)OC(C)(C)C)C(=O)OC(C)(C)C` (stereo not drawn), for which the TGI was above 100 µM in the assay on RPMI-8226 leukemia; above 100 µM in the assay on EKVX NSCLC; 66.6 µM with HOP-92 NSCLC; above 100 µM in the assay on CAKI-1 renal; above 100 µM in the assay with SF-295 CNS; above 100 µM in the assay on NCI-H522 lung. Further, the TGI in the assay with SK-OV-3 ovarian, in the assay on OVCAR-3 ovarian and in the assay with SR leukemia was above 100 µM in each case.
Take `NC(N)=NC(N)=Nc1cnccn1`: the TGI in the assay with EKVX NSCLC, in the assay on HOP-92 NSCLC, with CAKI-1 renal, in the assay on SF-295 CNS, in the assay with NCI-H522 lung and in the assay on SK-OV-3 ovarian was above 100 µM in each case. Besides, the TGI with OVCAR-3 ovarian is above 100 µM.
As to `COc1cc2c(cc1OC)CC(=O)Nc1cc(OC)c(OC)cc1CC2`, the TGI was above 20 µM in the assay on RPMI-8226 leukemia; above 100 µM in the assay on EKVX NSCLC; above 100 µM in the assay on HOP-92 NSCLC; above 100 µM with CAKI-1 renal; above 100 µM in the assay with SF-295 CNS; 47.5 µM with NCI-H522 lung. The results for the TGI in the assay on SK-OV-3 ovarian, with OVCAR-3 ovarian and in the assay on SR leukemia were above 100 µM, above 100 µM and above 43.7 µM, respectively.
`O=C1NC2C(=CC(O)C(O)C2O)c2cc3c(cc21)OCO3` (stereo not drawn): the GI50 is 0.5 µM and 0.147 µM in the assay with RPMI-8226 leukemia; 0.285 µM with EKVX NSCLC; 0.116 µM and 0.171 µM with HOP-92 NSCLC; 0.331 µM and 0.158 µM with CAKI-1 renal; 0.889 µM and 0.317 µM with SF-295 CNS; 0.352 µM and 0.105 µM in the assay on NCI-H522 lung. Moreover, the GI50 in the assay on SK-OV-3 ovarian is 0.232 µM and 0.272 µM; in the assay on OVCAR-3 ovarian it was 0.441 µM. Also, the TGI in the assay on RPMI-8226 leukemia was 0.908 µM and 1.67 µM; with EKVX NSCLC it was 3.06 µM and 2.29 µM; in the assay on CAKI-1 renal, 1.7 µM and 1.8 µM; in the assay with SF-295 CNS it was 3.26 µM and 2.39 µM; with NCI-H522 lung, 0.574 µM and 1.41 µM; in the assay on SK-OV-3 ovarian it was 7.09 µM and 4.31 µM. The TGI in the assay with OVCAR-3 ovarian was 2.36 µM and 1.42 µM; in the assay on SR leukemia, 0.566 µM.
For the compound `Nc1nc(Cl)cc(NCC(O)CO)n1` (stereo not drawn), the TGI in the assay with RPMI-8226 leukemia, in the assay on EKVX NSCLC, in the assay with HOP-92 NSCLC, in the assay on SF-295 CNS, in the assay with SK-OV-3 ovarian and in the assay on OVCAR-3 ovarian was above 100 µM in each case. Further, the TGI with SR leukemia is above 100 µM.
As to `CCC(O)C1Cc2c(C)cc3c(c2O1)C(=O)c1ccccc1C3=O` (stereo not drawn), the TGI with RPMI-8226 leukemia was 68 µM; with EKVX NSCLC it was above 100 µM; in the assay on HOP-92 NSCLC it was 97.1 µM; in the assay with CAKI-1 renal, above 100 µM; in the assay on SF-295 CNS, 86.8 µM; in the assay with NCI-H522 lung it was 51.6 µM. The results for the TGI in the assay on SK-OV-3 ovarian, with OVCAR-3 ovarian and in the assay on SR leukemia were 89.4 µM, above 100 µM and above 100 µM, respectively.
